Measurements: PubChem BioAssay AID652177 (Vanderbilt Specialized Chemistry Center, 2013)

Molecular target: High affinity choline transporter 1 (Homo sapiens) (UniProt Q9GZV3)
Assay: inhibition of SLC5A7-mediated choline transport – cell-based, HEK-293 hCHT, [3H]-choline uptake, dose response (AID 652177)
Settings: 15 min, IC50 at 10 uM choline

Chain of High affinity choline transporter 1 (Homo sapiens) (Q9GZV3 whole entry, looked up): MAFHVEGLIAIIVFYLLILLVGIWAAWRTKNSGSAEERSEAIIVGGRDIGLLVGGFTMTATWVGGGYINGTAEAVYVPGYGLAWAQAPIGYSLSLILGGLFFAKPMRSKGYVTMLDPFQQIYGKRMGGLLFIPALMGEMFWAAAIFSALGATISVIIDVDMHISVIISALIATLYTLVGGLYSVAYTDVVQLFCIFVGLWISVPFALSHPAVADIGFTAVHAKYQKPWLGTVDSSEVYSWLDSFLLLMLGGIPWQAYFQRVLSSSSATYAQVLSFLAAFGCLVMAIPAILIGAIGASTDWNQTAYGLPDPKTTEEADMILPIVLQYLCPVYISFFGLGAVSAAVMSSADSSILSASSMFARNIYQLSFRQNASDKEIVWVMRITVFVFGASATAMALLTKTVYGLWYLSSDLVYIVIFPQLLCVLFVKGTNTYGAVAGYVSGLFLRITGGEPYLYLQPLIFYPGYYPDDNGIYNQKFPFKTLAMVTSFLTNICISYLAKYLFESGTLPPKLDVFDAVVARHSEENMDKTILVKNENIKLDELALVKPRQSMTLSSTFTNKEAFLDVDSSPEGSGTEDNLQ

## CCc1cc(CNC(=O)c2ccc(OC)c(OCCN3CCCCC3)c2)on1
  IC50: 2210 nM
